From patent publication US6380201B1, “Methods of treating or ameliorating the symptoms of common cold or allergic rhinitis with serotonin 5-HT1F agonists” (Eli Lilly and Company, priority 1997, dated 2002)
Counter-ions that a name gives are not always drawn.

Legend:
[1] = biological target: T1, 5-HT1F receptor (Homo sapiens, UniProt P30939); settings: cited from earlier work
T1 sequence (P30939 1-366): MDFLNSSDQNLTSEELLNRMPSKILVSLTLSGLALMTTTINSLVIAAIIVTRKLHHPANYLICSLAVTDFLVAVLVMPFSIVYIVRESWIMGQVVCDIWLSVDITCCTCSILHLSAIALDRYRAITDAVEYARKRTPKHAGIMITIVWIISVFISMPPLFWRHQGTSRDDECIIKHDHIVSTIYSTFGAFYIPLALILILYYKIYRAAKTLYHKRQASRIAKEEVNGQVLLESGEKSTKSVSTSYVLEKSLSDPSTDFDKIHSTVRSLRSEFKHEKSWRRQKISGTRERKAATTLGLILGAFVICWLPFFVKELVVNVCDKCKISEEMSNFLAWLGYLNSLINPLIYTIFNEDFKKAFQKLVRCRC

[2] = biological target: human 5-HT1D receptor (Homo sapiens, UniProt P28221); settings: cited from earlier work
Chain of human 5-HT1D receptor (P28221 whole entry): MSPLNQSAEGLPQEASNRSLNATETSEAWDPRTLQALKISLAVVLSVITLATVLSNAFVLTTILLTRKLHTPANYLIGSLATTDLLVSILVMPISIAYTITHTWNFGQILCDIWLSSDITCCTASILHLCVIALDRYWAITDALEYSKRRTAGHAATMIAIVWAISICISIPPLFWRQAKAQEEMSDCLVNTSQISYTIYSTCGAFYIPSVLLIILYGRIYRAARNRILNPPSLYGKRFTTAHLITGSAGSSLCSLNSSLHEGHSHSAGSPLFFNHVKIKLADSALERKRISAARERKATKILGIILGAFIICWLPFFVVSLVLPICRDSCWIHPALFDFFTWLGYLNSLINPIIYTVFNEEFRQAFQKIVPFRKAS

melting point	Structure (SMILES)	other results
251 to 253 °C	CC(C)n1cc(CCNC2CCc3[nH]c4ccc(O)cc4c3C2)cn1.Cl (stereo not shown)	–
172 to 175 °C	CN1CCC(c2c[nH]c3ccc(C(=O)c4ccc(OC(F)(F)F)cc4)cc23)CC1	–
212 to 222 °C	CN1CC=C(c2c[nH]c3ccc(NC(=O)c4ccc(F)cc4Cl)cc23)CC1	–
104 to 108 °C	CC(C)N1CCC(c2c[nH]c3ccc(NS(C)(=O)=O)cc23)CC1 (as salt: salt)	–
186 to 189 °C	CC(=O)Nc1ccc2[nH]cc(C3=CCN(C)CC3)c2c1	–
238 to 240 °C	Cl.Clc1ccc(CCNC2CCc3[nH]c4ccc(OCc5ccccc5)cc4c3C2)cc1 (stereo not shown)	–
> 250 °C	CN1CC=C(c2c[nH]c3ccc(NC(=O)c4ccccc4)cc23)CC1	–
69 °C	CN1CCC(c2c[nH]c3ccc(C(=O)Cc4ccccc4)cc23)CC1	–
214 to 216 °C	Br.CN(C)C1CCc2[nH]c3ccc(NC(=O)C4CCC4)cc3c2C1 (stereo not shown)	–
119.1 °C	CN1CCC(c2c[nH]c3ccc(NS(C)(=O)=O)cc23)CC1.O=C(O)C(=O)O	–
103 to 104 °C	CN1CCC(c2c[nH]c3ccc(C(=O)c4ccc(N(C)C)cc4)cc23)CC1	–
78 °C	CCCCN1CCC(c2c[nH]c3ccc(NS(C)(=O)=O)cc23)CC1	–
160 °C (dec.)	Cl.Oc1ccc2[nH]c3c(c2c1)CC(NCCc1ccc(F)cc1)CC3 (stereo not shown)	–
252 °C	CN(C)[C@@H]1CCc2c([nH]c3ccc(Br)cc23)C1.I	–
179 to 181 °C (dec.)	CN1CCC(c2c[nH]c3ccc(NS(=O)(=O)N(C)C)cc23)CC1	–
133 °C	CN1CCC(c2c[nH]c3ccc(C(=O)c4ccc(Cl)cc4)cc23)CC1	–
159 to 162 °C	CN1CCC(c2c[nH]c3ccc(NC(=O)c4ccc(F)cc4Cl)cc23)CC1	–
–	NCCc1c[nH]c2ccc(C(N)=O)cc12 [5-carboxamidotryptamine]	affinity [1]: low affinity
229 to 230 °C	O=C(Nc1ccc2[nH]cc(C3CCNCC3)c2c1)c1ccc(F)cc1	–
230 °C (dec.)	NC1CCc2[nH]c3ccc(O)cc3c2C1 (stereo not shown)	–
170 to 173 °C	CCC(=O)Nc1ccc2[nH]cc(C3=CCN(C)CC3)c2c1.O=C(O)/C=C/C(=O)O	–

melting point	Structure (SMILES)	other results
90 °C	CN1CCC(c2c[nH]c3ccc(C(=O)c4ccccn4)cc23)CC1	–
252 to 255 °C	Cl.NC1CCc2[nH]c3ccc(NC(=O)c4ccc(F)cc4)cc3c2C1 (stereo not shown)	–
181 to 182 °C	CC(=O)c1ccc2[nH]c3c(c2c1)CC(N(C)C)CC3 (stereo not shown)	–
147 to 150 °C	CN1CCC(c2c[nH]c3ccc(Sc4ccccc4)cc23)CC1	–
< 90 °C	CN1CCC(c2c[nH]c3ccc(NC(=O)Cc4ccccc4)cc23)CC1.O=C(O)C(=O)O	–
224 °C	CN1CCC(c2c[nH]c3ccc(N4C(=O)c5ccccc5C4=O)cc23)CC1.O=C(O)C(=O)O	–
217 to 218.5 °C (dec.)	CCCN1CC=C(c2c[nH]c3ccc(NS(C)(=O)=O)cc23)CC1	–
161 to 165 °C (dec.)	CC(=O)Nc1ccc2[nH]cc(C3CCN(C)CC3)c2c1	–
207 to 208 °C	CN1CC=C(c2c[nH]c3ccc(NS(=O)(=O)N(C)C)cc23)CC1	–
89 °C	CN1CCC(c2c[nH]c3ccc(C(=O)c4ccc(F)cc4)cc23)CC1	–
127 to 135 °C (dec.)	CCN1CC=C(c2c[nH]c3ccc(NC(=O)c4ccc(F)cc4)cc23)CC1	–
153 to 155.5 °C	CN1CCC(c2c[nH]c3ccc(NC(=O)c4ccc5ccccc5c4)cc23)CC1	–
178 to 179 °C	CCN1CCC(c2c[nH]c3ccc(NC(=O)c4ccco4)cc23)CC1	–
215 to 220 °C	CN1CCC(c2c[nH]c3ccc(NC(=O)Nc4ccccc4)cc23)CC1.Cl	–
214 to 216 °C (dec.)	CN1CCC(c2c[nH]c3ccc(NC(=O)C(C)(C)C)cc23)CC1	–
92 °C	Cc1ccc(C(=O)c2ccc3[nH]cc(C4CCN(C)CC4)c3c2)cc1	–
185 °C (dec.)	CN1CCC(c2c[nH]c3ccc(NC(=O)c4cccc(Cl)c4)cc23)CC1.O=C(O)/C=C/C(=O)O	–
101 °C	CN1CCC(c2c[nH]c3ccc(C(=O)c4ccccc4)cc23)CC1	–
92 °C	CN1CCC(c2c[nH]c3ccc(C(=O)c4ccc5ccccc5c4)cc23)CC1	–
160 to 162 °C	COc1ccc(Sc2ccc3[nH]cc(C4CCN(C)CC4)c3c2)cc1	–
160 to 162 °C	CN1CCC(c2c[nH]c3ccc(C(=O)c4ccc(C(F)(F)F)cc4)cc23)CC1	–

melting point	Structure (SMILES)	other results
193 to 203 °C	CN1CCC(c2c[nH]c3ccc(NC(=O)c4cccc5ccccc45)cc23)CC1.Cl	–
90 °C (dec.)	COc1ccccc1C(=O)Nc1ccc2[nH]cc(C3CCN(C)CC3)c2c1.O=C(O)/C=C/C(=O)O	–
138 to 141 °C	CN1CCC(c2c[nH]c3ccc(SCc4ccccc4)cc23)CC1	–
114 °C (dec.)	CN1CCC(c2c[nH]c3ccc(NC(=O)c4ccco4)cc23)CC1.O=C(O)/C=C/C(=O)O	–
229 to 233 °C (dec.)	CN1CC=C(c2c[nH]c3ccc(NC(=O)c4cccs4)cc23)CC1	–
216 to 218 °C	Br.CN(C)C1CCc2[nH]c3ccc(NC(=O)C4CC4)cc3c2C1 (stereo not shown)	–
242 to 245 °C	CCCCC(=O)c1ccc2[nH]cc(C3CCN(C)CC3)c2c1.Cl	–
286 °C (dec.)	Cl.Cn1cc(CCNC2CCc3[nH]c4ccc(O)cc4c3C2)cn1 (stereo not shown)	–
175 to 185 °C (dec.)	CN1CCC(c2c[nH]c3ccc(N(S(=O)(=O)C(F)(F)F)S(=O)(=O)C(F)(F)F)cc23)CC1.Cl	–
232 °C (dec.)	COc1ccc(C(=O)Nc2ccc3[nH]cc(C4=CCN(C)CC4)c3c2)cc1	–
198 to 202 °C	CN1CC=C(c2cn(C)c3ccc(NS(C)(=O)=O)cc23)CC1	–
87 to 90 °C	CCCN1CCC(c2c[nH]c3ccc(NS(C)(=O)=O)cc23)CC1	–
207 to 208 °C	Cl.O=C(Nc1ccc2[nH]c3c(c2c1)CC(NCCc1ccccc1)CC3)c1ccc(F)cc1 (stereo not shown)	–
218 to 219 °C (dec.)	CCN1CC=C(c2c[nH]c3ccc(NS(C)(=O)=O)cc23)CC1	–
163 °C (dec.)	CN1CCC(c2c[nH]c3ccc(NC(=O)c4ccc(Cl)cc4)cc23)CC1.O=C(O)/C=C/C(=O)O	–
236 to 238 °C	Br.C=C(C)C(=O)Nc1ccc2[nH]c3c(c2c1)CC(N(C)C)CC3 (stereo not shown)	–
124 to 128 °C	Cc1[nH]c2ccc(NS(C)(=O)=O)cc2c1C1CCN(C)CC1	–
246 to 249 °C (dec.)	CN1CCC(c2c[nH]c3ccc(NS(=O)(=O)c4ccccc4)cc23)CC1	–
88 to 92 °C (dec.)	CCC(=O)Nc1ccc2[nH]cc(C3CCN(C)CC3)c2c1.O=C(O)/C=C/C(=O)O	–
178 to 180 °C	Cl.Oc1ccc2[nH]c3c(c2c1)CC(NCCc1ccccc1)CC3 (stereo not shown)	–
152 to 155 °C	CCN1CCC(c2c[nH]c3ccc(NC(=O)c4ccc(F)cc4)cc23)CC1.O=C(O)/C=C/C(=O)O	–

melting point	Structure (SMILES)	other results
176 to 178 °C	CCS(=O)(=O)Nc1ccc2[nH]cc(C3CCN(C)CC3)c2c1	–
151 °C (dec.)	COc1ccc(C(=O)Nc2ccc3[nH]cc(C4CCN(C)CC4)c3c2)cc1.O=C(O)/C=C/C(=O)O	–
83 °C	CN1CCC(c2c[nH]c3ccc(Sc4ccccn4)cc23)CC1	–
148 to 150 °C	CN1CCC(c2c[nH]c3ccc(Sc4ccc(Cl)cc4)cc23)CC1	–
65 °C	CC(=O)c1ccc2[nH]cc(C3CCN(C)CC3)c2c1.Cl.O (hydrate or solvate)	–
210 to 211 °C	Cl.O=C(Nc1ccc2[nH]c3c(c2c1)CC(NCCc1ccc(F)cc1)CC3)c1ccc(F)cc1 (stereo not shown)	–
224 to 226 °C	CCS(=O)(=O)Nc1ccc2[nH]cc(C3=CCN(C)CC3)c2c1	–
–	CNS(=O)(=O)Cc1ccc2[nH]cc(CCN(C)C)c2c1 [Sumatriptan]	affinity [1]: show affinity; affinity [2]: high affinity
> 250 °C	CN1CCC(c2c[nH]c3ccc(NS(=O)(=O)c4ccc(I)cc4)cc23)CC1	–
224 to 226 °C	Br.CN(C)C1CCc2[nH]c3ccc(NC(=O)C4CCCCC4)cc3c2C1 (stereo not shown)	–
209 °C (dec.)	CN1CCC(c2c[nH]c3ccc(NC(=O)c4ccccc4Cl)cc23)CC1.O=C(O)/C=C/C(=O)O	–
179 to 181 °C	CCN1CCC(c2c[nH]c3ccc(NS(C)(=O)=O)cc23)CC1	–
210 to 214 °C	CN1CC=C(c2c[nH]c3ccc(NS(C)(=O)=O)cc23)CC1	–
176 to 184 °C	Cc1[nH]c2ccc(NS(C)(=O)=O)cc2c1C1=CCN(C)CC1	–
211 to 213 °C (dec.)	CC(C)N1CC=C(c2c[nH]c3ccc(NS(C)(=O)=O)cc23)CC1	–
241 °C (dec.)	O=C(Nc1ccc2[nH]cc(C3=CCNCC3)c2c1)c1ccc(F)cc1	–
202 to 204 °C	CCCCN1CC=C(c2c[nH]c3ccc(NS(C)(=O)=O)cc23)CC1	–
190 °C (dec.)	CN1CC=C(c2c[nH]c3ccc(NC(=O)c4ccco4)cc23)CC1	–
152 °C (dec.)	COc1cccc(C(=O)Nc2ccc3[nH]cc(C4CCN(C)CC4)c3c2)c1.O=C(O)/C=C/C(=O)O	–
130 °C	CN1CCC(c2c[nH]c3ccc(NC(=O)c4ccccc4)cc23)CC1.O=C(O)C(=O)O	–
224 to 226 °C	CN1CC=C(c2c[nH]c3ccc(NC(=O)c4ccc(Cl)cc4)cc23)CC1	–
